From US20170198011A1, “COMPOSITION FOR TREATING SEPSIS OR SEPTIC SHOCK COMPRISING THE PEPTIDE ORIGINATED FROM THE SMAD6” (Medpacto, Inc., priority 2011, published 2017)
Where no end group is shown, it is not given here. The star is where a group is joined. Palmitoyl = CCCCCCCCCCCCCCCC(=O)*

Tests used:
inflammatory cytokines = test: Blood cytokine levels by ELISA in mice with CLP-induced sepsis; assay type: in vivo; details: blood 24 hrs after CLP
From the text: FIG. 6A to 6I show levels of cytokines in blood samples from mice subcutaneously injected twice with Smaducin-6 or scrambled peptides at 2 and 14 hrs after CLP induction, as analyzed by ELISA, the blood samples being taken 24 hrs after CLP induction, and
In animal models of CLP-induced sepsis, Smaducin-6 was examined for ability to downregulate inflammatory cytokines. Blood samples were taken from each experimental group, and various cytokines and chemokines related with inflammatory responses were quantitatively measured. To the mice with CLP-induced sepsis, the peptide of the present invention was injected 2 and 14 hrs after CLP, and blood samples were collected 24 hrs after CLP. Levels of cytokines and chemokines in the blood samples were determined by ELISA using various antibodies according to the manufacturer's protocol. The antibodies used in this ELISA included mouse IL-6 (88-7064), IFN-γ (88-7314), TNF-α (88-7346), IL-4 (88-7044), IL-10 (88-7104), TGF-β1 (88-7344), IL-12 p70 (88-7121) and IL-17A (88-7371) ELISA Ready-SET-GO from eBioscience, Mouse IL-1β ELISA Set (559603) from BD Sciences, Mouse CXCL2/MIP-2 Immunoassay (MM200) from R&D Systems, and Mouse IFN-β ELISA Kit from PBL Biomedical Laboratories.

GRK2 = test: LPS-induced GRK2 expression in human neutrophils (immunoblot); assay type: cell-based; details: 100 nM for 2 hrs, then LPS 2 hrs
Experimental: To examine how Smaducin-6 interrupts with the LPS-induced downregulation of CXCR2, the levels of G-protein-coupled receptor kinase 2 (GRK2) in human neutrophils and RAW264.7 macrophages were measured. GRK2 is upregualted by LPS, which is known to suppress the expression of CXCR2.

NF-κB = test: NF-κB-mediated downstream signaling in LPS-stimulated RAW264.7 cells (luciferase, immunoblots); assay type: cell-based, mouse
Experimental: FIG. 4B is a graph showing luciferase activity in RAW264.7 cells transfected with a 5×NF-κB-Luc plasmid after treatment with scrambled peptides (Pal-Scram; 100 nM) or Smaducin-6 and then with LPS,

neutrophils = test: Peritoneal neutrophil migration in LPS septic shock mice; assay type: in vivo, BALB/c mice; details: LPS 60 mg/kg, injected 2 and 14 hrs after, neutrophils isolated at 24 hrs
From the text: FIG. 7B is a graph showing neutrophil counts in the peritoneal fluid taken from BALB/c mice with LPS-induced septic shock at 24 hrs after LPS injection,
In mice with CLP-induced sepsis, the bacterial clearance of Smaducin-6 was examined. Smaducin-6 or the scrambled peptides were subcutaneously injected into CLP mice from which peritoneal fluid was then extracted from the mice, and bacteria in the fluid was counted. […] An examination was made to see whether this bacterial clearance of Smaducin-6 was attributed to the intraperitoneal migration of neutrophils. To this end, 2 and 14 hrs after induction of septic shock by injecting 60 mg/kg of LPS, Smaducin-6 or the scrambled peptides were injected into septic shock mice, and 24 hrs after the induction of septic shock, neutrophils were isolated from the peritoneal cavity using Histopaque-1077 (Sigma). Mouse neutrophils were counted using Trypan Blue (Sigma).

[1] = tested on: TUNEL-positive cells in the spleen; test: TUNEL assay of spleen of mice with CLP-induced sepsis; assay type: in vivo; details: injected 2 and 14 hrs after CLP, spleen at 24 hrs
Experimental: An examination was made to see whether Smaducin-6 suppresses apoptosis in mice with CLP-induced sepsis. The scrambled peptides or the Smaducin-6 peptide was injected into mice suffering from CLP-induced sepsis from which the spleen was then excised. Smaducin-6 was assayed for anti-apototic activity using the TUNEL method. The expression level of caspase-3, involved in apoptosis, was also determined using an immunohistochemical assay.

[2] = tested on: IRAK1-, RIP1- or IKKε-mediated signaling complexes; test: Co-immunoprecipitation of LPS-induced TLR4 downstream signaling complexes in primary peritoneal macrophages; assay type: cell-based, mice
Experimental: A co-immunoprecipitation assay was carried out as follows. For use as antibodies in co-immunoprecipitation, mouse anti-HA (F-7), mouse anti-c-Myc (9E10), rabbit anti-IκBα (C-21), mouse anti-IRAK1 (F-4), and mouse anti-TRAF6 (D-10) were purchased from Santa Cruz Biotechnology (USA), the antibodies rabbit anti-Pellino-1 and rabbit anti-IRAK4 from Imgenex, the antibodies rabbit anti-Smad6, rabbit anti-MyD88 (D80F5), rabbit anti-IKKα, rabbit anti-phospho-IKKα/β, rabbit anti-RIP1 (D94C12), rabbit anti-IKKi (anti-IKKE; D61F9), rabbit anti-TBK1 (D1B4), rabbit anti-GRK2 from Cell Signaling, and the antibody anti-β-actin from Sigma. Cells were lysed in a lysis buffer (PBS containing 0.5% Triton X-100, 20 mM HEPES (pH 7.4), 150 mM NaCl, 12.5 mM β-glycerol phosphate, 1.5 mM MgCl2, 10 mM NaF, 2 mM DTT, 1 mM Na3O4V, 2 mM EGTA, 1 mM PMSF and protease inhibitor mixture), and harvested by centrifuging 13,000 rpm for 10 min. For immunoprecipitation, the cell lysate were incubated at 4° C. for 12 hrs with protein-A agarose beads and the above-mentioned antibodies. Afterwards, the beads were washed three times with a lysis buffer, and treated with a 2× sample buffer to separate the co-immunoprecipitates therefrom. The co-immunoprecipitates were boiled, followed by SDS-PAGE.
To examine whether Smaducin-6 interrupts the formation of the downstream signaling complex of TLR4, the cells were pre-treated with Smaducin-6 in the same manner as in Example 1, and analyzed for the LPS-induced formation of the signaling complex using a co-immunoprecipitation method. For control, the same experiment was conducted with scrambled peptides.

[3] = injected 2 and 14 hrs after CLP

Substance: Smaducin-6: palmitic acid conjugated to N-terminus of the 20-amino-acid peptide of Smad6 position 422 to 441, GGRALVVRKVPPGYSIKVFD (SEQ ID NO: 1) (Palmitoyl-GGRALVVRKVPPGYSIKVFD)
- level of IFN-γ in the blood (inflammatory cytokines; [3]): significantly reduced
- level of IL-1β in the blood (inflammatory cytokines; [3]): significantly reduced
- level of IL-6 in the blood (inflammatory cytokines; [3]): significantly reduced
- level of TNF-α in the blood (inflammatory cytokines; [3]): significantly reduced
- level of IL-4 in the blood (inflammatory cytokines; versus scrambled peptide): no statistically significant changes
- level of IL-10 in the blood (inflammatory cytokines; versus scrambled peptide): no statistically significant changes
- level of IL-12 in the blood (inflammatory cytokines; versus scrambled peptide): no statistically significant changes
- level of IL-17A in the blood (inflammatory cytokines; versus scrambled peptide): no statistically significant changes
- level of TGF-β1 in the blood (inflammatory cytokines; versus scrambled peptide): no statistically significant changes
- LPS-induced GRK2 expression (GRK2): downregualed
- NF-κB-mediated luciferase gene expression (NF-κB; 5xNF-κB-Luc): suppress
- IKKα/β phosphorylation (NF-κB; immunoblot): suppress
- IκBα degradation (NF-κB; immunoblot): suppress
- migration of neutrophils to the peritoneal cavity (neutrophils): increased
- level of TUNEL-positive cells in the spleen [1]: significantly reduced
- LPS-induced formation of the IKKε-mediated signaling complex [2]: suppressed
- LPS-induced formation of the IRAK1-mediated signaling complex [2]: suppressed
- LPS-induced formation of the RIP1-mediated signaling complex [2]: suppressed
